Assay results from ChEMBL document CHEMBL2346569, “Synthesis and biological evaluation of pyridazine derivatives as novel HIV-1 NNRTIs” (Bioorg Med Chem, 2013).

Columns and labels:
[1] = Selectivity index, ratio of CC50 for mock-infected human MT4 cells to EC50 for wild type HIV1 3B
[2] = system: Human immunodeficiency virus 1; assay: Antiviral activity against HIV1 RES056 harboring reverse transcriptase K103N/Y181C double mutant infected in human MT4 cells assessed as protection against virus-induced cytopathicity after 5 days by MTT assay; format: functional, organism-based
[3] = system: Human immunodeficiency virus 2; assay: Antiviral activity against HIV2 ROD infected in human MT4 cells assessed as protection against virus-induced cytopathicity after 5 days by MTT assay; format: functional, organism-based, ISOLATE ROD
[4] = Cytotoxicity against mock-infected human MT4 cells assessed as cell viability after 5 days by MTT assay; format: cell-based
[5] = system: Human immunodeficiency virus 1; assay: Antiviral activity against wild type HIV1 3B infected in human MT4 cells assessed as protection against virus-induced cytopathicity after 5 days by MTT assay; format: functional, organism-based; conditions: Human immunodeficiency virus 1, 3B, MT4, 120 h
[6] = molecular target: Human immunodeficiency virus type 1 reverse transcriptase (Human immunodeficiency virus 1, UniProt Q72547); assay: Inhibition of HIV 1 reverse transcriptase assessed as incorporation of biotin-dUTP into poly rA.dT by ELISA
[7] = system: Human immunodeficiency virus 1; assay: Antiviral activity against HIV1 harboring reverse transcriptase K103N/Y181C double mutant infected in human MT4 cells assessed as protection against virus-induced cytopathicity after 5 days by MTT assay; format: functional, organism-based; conditions: Human immunodeficiency virus 1, MT4, 120 h
[8] = system: Human immunodeficiency virus 1; assay: Antiviral activity against HIV1 harboring reverse transcriptase L100I/K103N double mutant infected in human MT4 cells assessed as protection against virus-induced cytopathicity after 5 days by MTT assay; format: functional, organism-based; conditions: Human immunodeficiency virus 1, MT4, 120 h
[9] = system: Human immunodeficiency virus 1; assay: Antiviral activity against wild type HIV1 LAI infected in human MT4 cells assessed as protection against virus-induced cytopathicity after 5 days by MTT assay; format: functional, organism-based; conditions: Human immunodeficiency virus 1, LAI, MT4, 120 h

| Compound | selectivity ratio ([1]; mock-infected MT4 cells) | EC50 ([2]; mt4) | EC50 ([3]; mt4) | CC50 at 120 h [4] | EC50 [5] | IC50 [6] | selectivity ratio ([1]; mt4) | EC50 ([2]; Human immunodeficiency virus 1, RES056, MT4, 120 h, read-out: EC50) | EC50 ([3]; Human immunodeficiency virus 2, ISOLATE ROD, MT4, 120 h, read-out: EC50) | EC50 [7] | EC50 [8] | EC50 [9] |
| --- | --- | --- | --- | --- | --- | --- | --- | --- | --- | --- | --- | --- |
| Cc1cc(C)c(Oc2cc(Nc3ccc([N+](=O)[O-])cc3)nnc2Cl)c(C)c1 | < 1 | Not Active | Not Active | 0.94 µM | > 0.94 µM |  |  |  |  |  |  |  |
| Cc1cc(C)c(Oc2cc(Nc3ccc(Cl)cc3)n[nH]c2=O)c(C)c1 | 8 | Not Active | Not Active | 5.98 µM | 0.78 µM |  |  |  |  |  |  |  |
| N#Cc1ccc(Nc2cc(Oc3c(Cl)cc(Cl)cc3Cl)c(Cl)nn2)cc1 | 120 | Not Active | Not Active | 18.6 µM | 0.155 µM |  |  |  |  |  |  |  |
| Cc1cc(Br)cc(C)c1Oc1cc(Nc2ccc(C#N)cc2)nnc1Cl | 210 | Not Active | Not Active | 84.1 µM | 0.4 µM |  |  |  |  |  |  |  |
| Cc1cc(C)c(Oc2cc(Nc3ccc(C#N)cc3)nn(C)c2=O)c(C)c1 | 123 | Not Active | Not Active | 143 µM | 1.16 µM |  |  |  |  |  |  |  |
| N#Cc1ccc(Nc2cc(Oc3c(Br)cc(Br)cc3Br)c(Cl)nn2)cc1 | 124 | Not Active | Not Active | 22.3 µM | 0.18 µM |  |  |  |  |  |  |  |
| Cc1cc(Br)c(Oc2cc(Nc3ccc(C#N)cc3)nnc2Cl)c(Br)c1 | 565 | Not Active | Not Active | 19.2 µM | 0.034 µM | 3.18 µM |  |  |  |  |  |  |
| N#Cc1ccc(Nc2cc(Oc3c(Cl)cc(Cl)cc3Cl)c(=O)[nH]n2)cc1 |  | Not Active | Not Active | 35 µM | ≥ 9.2 µM |  |  |  |  |  |  |  |
| CC(C)Nc1cccnc1N1CCN(C(=O)c2cc3cc(NS(C)(=O)=O)ccc3[nH]2)CC1 [DELAVIRDINE] | > 1030 | Not Active | Not Active | > 43.4 µM | 0.042 µM |  |  |  |  |  |  |  |
| Cc1cccc(C)c1Oc1cc(Nc2ccc(C#N)cc2)nnc1Cl | 537 | Not Active | Not Active | 290 µM | 0.54 µM |  |  |  |  |  |  |  |
| O=C1Nc2ccc(Cl)cc2[C@@](C#CC2CC2)(C(F)(F)F)O1 [EFAVIRENZ] |  |  |  | > 2 µM | 0.007 µM |  | > 286 | 0.59 µM | 0.02 µM |  |  |  |
| Cc1cc(C)c(Oc2cc(Nc3ccc(C#N)cc3)nnc2Cl)c(C)c1 | 461 | Not Active | Not Active | 36.3 µM | 0.079 µM |  |  |  |  |  |  |  |
| Cc1cc(C#N)cc(C)c1Oc1nc(Nc2ccc(C#N)cc2)c(=O)n(C)c1C |  |  |  |  |  |  |  |  |  | 0.061 µM | 0.158 µM | 0.006 µM |
| Cc1cc(C)c(Oc2cc(Nc3ccc(Cl)cc3)nnc2Cl)c(C)c1 | 1510 | Not Active | Not Active | 210 µM | 0.139 µM |  |  |  |  |  |  |  |
| Cc1cc(Br)cc(C)c1Oc1cc(Nc2ccc(C#N)cc2)n[nH]c1=O | 16 | Not Active | Not Active | 19.5 µM | 1.19 µM |  |  |  |  |  |  |  |
| Cc1cccc(C)c1Oc1cc(Nc2ccc(C#N)cc2)n[nH]c1=O | 108 | Not Active | Not Active | 205 µM | 1.9 µM |  |  |  |  |  |  |  |

| Compound | selectivity ratio ([1]; mock-infected MT4 cells) | EC50 ([2]; mt4) | EC50 ([3]; mt4) | CC50 at 120 h [4] | EC50 [5] | IC50 [6] | selectivity ratio ([1]; mt4) | EC50 ([2]; Human immunodeficiency virus 1, RES056, MT4, 120 h, read-out: EC50) | EC50 ([3]; Human immunodeficiency virus 2, ISOLATE ROD, MT4, 120 h, read-out: EC50) | EC50 [7] | EC50 [8] | EC50 [9] |
| --- | --- | --- | --- | --- | --- | --- | --- | --- | --- | --- | --- | --- |
| Cc1ccnc2c1NC(=O)c1cccnc1N2C1CC1 [NEVIRAPINE] |  | Not Active | Not Active | > 14.9 µM |  |  |  |  |  |  |  |  |
| Cc1ccc(Nc2cc(Oc3c(C)cc(C)cc3C)c(=O)[nH]n2)cc1 | 119 | Not Active | Not Active | 185 µM | 1.55 µM |  |  |  |  |  |  |  |
| Cc1cc(C)c(Oc2cc(Nc3ccc([N+](=O)[O-])cc3)n[nH]c2=O)c(C)c1 | 7 | Not Active | Not Active | 37.1 µM | 5.08 µM |  |  |  |  |  |  |  |
| N#Cc1ccc(Nc2cc(Oc3c(Cl)cccc3Cl)c(Cl)nn2)cc1 | 423 | Not Active | Not Active | 93.1 µM | 0.22 µM |  |  |  |  |  |  |  |
| Cc1cc(C)c(Oc2cc(Nc3ccc(C#N)cc3)n[nH]c2=O)c(C)c1 | 180 | Not Active | Not Active | 47 µM | 0.26 µM |  |  |  |  |  |  |  |
| COc1ccc(Nc2cc(Oc3c(C)cc(C)cc3C)c(=O)[nH]n2)cc1 | 4 | Not Active | Not Active | 5.88 µM | 1.59 µM |  |  |  |  |  |  |  |
| N#Cc1ccc(Nc2cc(Oc3c(Br)cc(Br)cc3Br)c(=O)[nH]n2)cc1 | 221 | Not Active | Not Active | 139 µM | 0.63 µM |  |  |  |  |  |  |  |
| Cc1cc(C#N)cc(C)c1Oc1cc(Nc2ccc(C#N)cc2)nnc1Cl | 369 | Not Active | Not Active | 53.2 µM | 0.144 µM |  |  |  |  |  |  |  |
| Cc1cc(C#N)cc(C)c1Oc1cc(Nc2ccc(C#N)cc2)n[nH]c1=O | 96 | Not Active | Not Active | 272 µM | 2.83 µM |  |  |  |  |  |  |  |
| Cc1cc(Br)c(Oc2cc(Nc3ccc(C#N)cc3)n[nH]c2=O)c(Br)c1 | 733 | Not Active | Not Active | 154 µM | 0.21 µM |  |  |  |  |  |  |  |
| Cc1cc(C)c(Oc2cc(N(C)c3ccc(C#N)cc3)nn(C)c2=O)c(C)c1 | ≥ 73 | Not Active | Not Active | ≥ 246 µM | 3.36 µM |  |  |  |  |  |  |  |
| Cc1cc(C#N)cc(C)c1Oc1nc(Nc2ccc(C#N)cc2)nc(N)c1Br [ETRAVIRINE] |  |  | Not Active | > 4.6 µM |  |  |  |  |  |  |  |  |
| COc1cccc(OC)c1Oc1cc(Nc2ccc(C#N)cc2)nnc1Cl | < 1 | Not Active | Not Active | 2.9 µM | > 2.9 µM |  |  |  |  |  |  |  |
| Cc1cc(C)c(Oc2cc(Nc3cccc(Cl)c3)n[nH]c2=O)c(C)c1 | 8 | Not Active | Not Active | 119 µM | 14.4 µM |  |  |  |  |  |  |  |
| Cc1cc(C#N)cc(C)c1Oc1ccc(=O)n(Nc2ccc(C#N)cc2)n1 |  |  |  |  |  |  |  |  |  |  |  | 1.75 µM |
| Cc1ccc(Nc2cc(Oc3c(C)cc(C)cc3C)c(Cl)nn2)cc1 | 1210 | Not Active | Not Active | 244 µM | 0.201 µM |  |  |  |  |  |  |  |
